In patent publication US10278965B2, “Method of detecting cancer stem cell, method of screening cancer stem cell, and method of inhibiting cancer stem cell” (CANON KABUSHIKI KAISHA, priority 2012, dated 2019):

Key:
[1] = Measurement of fluorescent property of compound; type: physicochemical; conditions: 5 μM DMSO solution
Protocol: The excitation wavelength and fluorescence wavelength of the compound were measured by a FL4500 spectrofluorometric measuring machine manufactured by Hitachi High-Technologies Corporation.

[2] = system: Prostatic cancer cells, PC-3; experiment: Cancer cell inhibitory (growth suppressive) action against prostatic cancer cells, CellTiter-Glo viable cell count; type: cell-based; conditions: PC-3, 10 μg/mL, 24 hours
Protocol: Prostatic cancer cells, PC-3, were pre-cultured in RPMI1640 medium containing 10% FBS at 37° C. in a 5% CO2 ambient. Thereafter, 4,000 cells were seeded per well of a 96-well plate and further cultured for 24 hours. Subsequently, Compound (1) was added to the medium so as to obtain a final concentration of 10 μg/mL and cultured at 37° C. for 24 hours in a 5% CO2 ambient. The cultured cells were analyzed for viable cell count according to Cell Titer-Glo Luminescent Cell Viability Assay (manufactured by Promega KK.).
Viable cell count was analyzed in the same manner as in Experimental Example 24 except that Compound (1) of Experimental Example 24 was changed to each compound shown in Table 2.
Viable cell count was analyzed in the same manner as in Experimental Example 24 except that Compound (1) of Experimental Example 24 was changed to each of Comparative compounds 1 to 4, to obtain growth rates.
Note that the growth rate used in Examples refers to the rate (expressed by percentage) of viable cell count after culture relative to the number of cells at the initiation of cell culture. Evaluation criteria are the same as in the above experiments.

[3] = system: Human pancreas cancer cells, KLM-1; experiment: Cancer cell inhibitory (growth suppressive) action against pancreatic cancer cells, CellTiter-Glo viable cell count; conditions: KLM-1, 10 μg/mL, 24 hours
[4] = system: Human chronic myelocytic leukemia cells, K562, ALDH (+) fraction (cancer stem cells); experiment: Cancer stem-cell selective inhibitory action against chronic myelocytic leukemia cells, ALDH (+) fraction; type: cell-based; conditions: K562, 10 μg/ml, 24 hours
Protocol: Human chronic myelocytic leukemia cells, K562, were pre-cultured in RPMI1640 medium containing 10% FBS at 37° C. in a 5% CO2 ambient. Then, a fraction containing 80% or more of cancer stem cells was extracted by use of a cancer stem cell marker, ALDEFLUOR reagent (manufactured by VERITAS Corporation) and FACSAria flow cytometry (manufactured by Nippon Becton, Dickinson and Company). […] The cultured cells were analyzed for viable cell count according to CellTiter-Glo Luminescent Cell Viability Assay (manufactured by Promega KK.). […] Note that hereinafter, an ALDEFLUOR reagent positive fraction (deemed as cancer stem cells) is represented by ALDH (+), whereas an ALDEFLUOR reagent negative fraction (not deemed as cancer stem cells) is represented by ALDH (−), in some cases.
Further, the growth suppressive effect of cancer stem cells was evaluated based on the following criteria. Note that the growth rate in Examples is a value obtained by dividing viable cell count after culture by the number of cells at the initiation time of culture.

Row | Structure (SMILES) | Excitation wavelength λex [1] | Fluorescence wavelength λem [1] | Cancer cell growth rate (%) [2] | Evaluation (cancer cell growth rate) [2] | Cancer cell growth rate (%) [3] | Evaluation (cancer cell growth rate) [3] | ALDH(+) Superiority evaluation [4] | ALDH(+)/ALDH(−) [4]
1 | CN1/C(=C/C=C2\CCCC(/C=C/C3=[N+](C)c4ccc5ccccc5c4C3(C)C)=C2Cl)C(C)(C)c2c1ccc1ccccc21 [Compound 49] | 830 nm | 831 nm | 5.3% | A (Cancer cell growth rate is less than 20%) | 12.0% | A (Cancer cell growth rate is less than 20%) | – | –
2 | CCN1/C(=C\C(C)=C\c2sc3c4ccccc4ccc3[n+]2CC)Sc2c1ccc1ccccc21 [Compound 11] | 354 nm | 469 nm | 4.3% | A (Cancer cell growth rate is less than 20%) | 5.0% | A (Cancer cell growth rate is less than 20%) | – | –
3 | CCCN1\C(=C/C=C/C=C/C2=[N+](CCC)c3ccccc3C2(C)C)C(C)(C)c2ccccc21 [Compound 27] | 650 nm | 675 nm | 7.7% | A (Cancer cell growth rate is less than 20%) | 6.0% | A (Cancer cell growth rate is less than 20%) | A (The value of the growth rate of ALDH (+)/the growth rate of ALDH (−) is less than 0.8) | 0.56
4 | CCCCN1/C(=C/C=C2\CCCC(/C=C/C3=[N+](CCCC)c4ccccc4C3(C)C)=C2Cl)C(C)(C)c2ccccc21 [Compound 43] | 797 nm | 816 nm | 12.3% | A (Cancer cell growth rate is less than 20%) | 35.6% | B (Cancer cell growth rate is 20% or more and less than 50%) | – | –
5 | CCN1/C(=C\C=C\c2sc3ccccc3[n+]2CC)Sc2ccccc21 [Compound 1] | 485 nm | 575 nm | 13.8% | A (Cancer cell growth rate is less than 20%) | 31.9% | B (Cancer cell growth rate is 20% or more and less than 50%) | B (The value of the growth rate of ALDH (+)/the growth rate of ALDH (−) is 0.8 or more and less than 0.95) | 0.87
6 | CCN1/C(=C\C(C)=C\c2sc3ccccc3[n+]2CC)Sc2ccccc21 [Compound 5] | 560 nm | 628 nm | 15.0% | A (Cancer cell growth rate is less than 20%) | 6.4% | A (Cancer cell growth rate is less than 20%) | A (The value of the growth rate of ALDH (+)/the growth rate of ALDH (−) is less than 0.8) | 0.79
7 | CCC(/C=C1\Sc2ccccc2N1CC)=C\c1sc2ccccc2[n+]1CC.[I-] [Compound 4] | 563 nm | 569 nm | 19.5% | A (Cancer cell growth rate is less than 20%) | 3.1% | A (Cancer cell growth rate is less than 20%) | – | –
